This is an account of results in US8829196B2, “TRPA1 antagonists” (Merck Sharp & Dohme Corp., priority 2009, dated 2014).

T1 sequence (O75762 whole entry R3C/R58T/K186N): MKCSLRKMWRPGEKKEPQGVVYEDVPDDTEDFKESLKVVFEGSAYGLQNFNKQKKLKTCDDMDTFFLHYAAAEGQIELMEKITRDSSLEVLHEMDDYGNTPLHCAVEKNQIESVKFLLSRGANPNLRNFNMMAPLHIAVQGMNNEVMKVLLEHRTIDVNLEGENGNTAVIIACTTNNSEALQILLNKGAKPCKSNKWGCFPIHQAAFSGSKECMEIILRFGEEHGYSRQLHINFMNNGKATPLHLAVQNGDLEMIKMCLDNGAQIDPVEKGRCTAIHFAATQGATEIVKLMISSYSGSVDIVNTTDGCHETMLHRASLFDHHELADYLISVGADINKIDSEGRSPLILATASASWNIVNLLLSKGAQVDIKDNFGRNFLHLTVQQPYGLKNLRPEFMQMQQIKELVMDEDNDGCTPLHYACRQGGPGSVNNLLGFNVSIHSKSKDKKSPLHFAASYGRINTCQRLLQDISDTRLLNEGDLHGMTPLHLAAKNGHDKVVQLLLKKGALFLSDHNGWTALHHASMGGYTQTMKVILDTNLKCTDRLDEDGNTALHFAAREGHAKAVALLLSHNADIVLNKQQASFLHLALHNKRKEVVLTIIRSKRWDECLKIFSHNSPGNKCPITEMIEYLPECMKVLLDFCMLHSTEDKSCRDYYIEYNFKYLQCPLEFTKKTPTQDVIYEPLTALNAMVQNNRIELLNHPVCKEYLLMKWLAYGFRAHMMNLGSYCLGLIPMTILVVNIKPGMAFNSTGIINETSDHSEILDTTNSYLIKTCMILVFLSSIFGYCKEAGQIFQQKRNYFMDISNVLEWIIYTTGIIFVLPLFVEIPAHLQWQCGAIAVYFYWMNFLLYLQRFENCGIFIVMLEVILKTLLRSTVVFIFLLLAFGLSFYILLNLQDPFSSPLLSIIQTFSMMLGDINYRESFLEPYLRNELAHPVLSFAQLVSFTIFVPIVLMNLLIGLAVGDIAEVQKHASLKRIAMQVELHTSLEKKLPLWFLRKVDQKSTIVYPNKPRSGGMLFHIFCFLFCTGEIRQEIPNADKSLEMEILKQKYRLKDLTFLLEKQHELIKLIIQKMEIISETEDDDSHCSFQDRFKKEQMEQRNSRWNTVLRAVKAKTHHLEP

The test has as its target T1, human TRPA1 (Homo sapiens, UniProt O75762, K186N/R3C/R58T).
T1 construct: host or cells: HEK293 FlpIn
Nature of the test: High Throughput Calcium Imaging Assay (FLIPR, cinnamaldehyde-activated Ca2+ influx). The test is classed as cell-based. The conditions noted are these: HEK293 FlpIn cells stably expressing human TRPA1; EC60 cinnamaldehyde; Fluo-4AM; read-out: TRPA1 hFLIPR IC50. From the text: The assay was dependent on detecting the change in intracellular Ca2+ concentration following activation of the channel in cells stably expressing the TRPA1 channel. Activation of the TRPA1 channel was followed by Ca2+ influx. Ca2+ increase was quantified through the use of a fluorescent Ca2+ indicator that was loaded into the cells. Compounds which inhibited Ca2+ increase were considered “hits” warranting additional examination.
The HEK293 FlpIn cell line (Invitrogen) was stably transfected as per the manufacturers guidelines with a construct encoding a human TRPA1 protein with the amino acid sequence depicted in SEQ ID NO: 1. The resulting cell line was maintained in the growth medium recommended by the manufacturer and supplemented with 100 ug/mL Hygromycin B to promote the selection of cells stably expressing the TRPA1 channel. After growing to confluency, cells were plated at a density of 24,000 cells/well in 384 well Black/Clear Microtest plates (Falcon) in the recommended growth medium supplemented with hygromycin, and allowed to grow for 20-24 hours resulting in a ˜90% confluent monolayer of cells. Cells were then loaded with assay buffer containing the Ca2+ dye Fluo-4AM (Invitrogen) to a final concentration of 4 uM, and incubated for 60 minutes at room temperature in the dark. The assay buffer consisted of 138 mM NaCl, 5.33 mM KCl, 1.26 mM CaCl2, 0.49 mM MgCl2, 0.41 mM MgSO4 5.56 mM D-glucose, 0.44 mM KH2PO4, 0.34 mM Na2HPO4, 20 mM HEPES, 2.5 mM Probenecid, and 4% TR-40; pH 7.8. Following 1 hour dye loading, cells were assayed using the FLIPR TETRA (Molecular Devices) which permits excitation of the Fluo-4AM dye, and subsequent recording of emission spectra according to the manufacturer's guidelines. A total of 5 baseline readings were acquired prior to each reagent addition, after which, readings were acquired at a rate of 1 every 3 seconds for 195 seconds, and then 1 every 10 seconds for an additional 420 seconds. During the assay, reagents were added and mixed after each addition by the FLIPR TETRA pippetor. EC60 concentration of Cinnamaldehyde was determined before the screening assay, and used as the activating concentration henceforth. For the screening assay, the baseline reading was taken, followed by addition of 10 uL of a compound stock at six-times the final concentration, followed by 615 seconds of read time as previously described. Following baseline readings, 10 μl, of six-times final concentration Cinnamaldehyde was added to each well, achieving a final concentration of 10 uM compound, and on average, 12 uM Cinnamaldehyde (depending on the EC60 derived during that experiment). Following addition of Cinnamaldehyde, readings were taken for 615 seconds as previously described. Negative controls consisted of HEK293 FlpIn TRPA1 cells exposed to compound vehicle and then Cinnamaldehyde. […] “Hits” were identified as compounds which inhibited the fluorescence response in the presence of Cinnamaldehyde as compared to the negative and positive controls. IC50 values were determined for compounds defined as “hits” which reached fully inhibition. This cell-based fluorescence assay was used to determine Ca2+ influx through the channel in the presence of compound at the following concentrations: 10 uM, 3.33 uM, 1.11 uM, 0.37 uM, 0.12 uM, 0.041 uM, 0.014 uM, 0.0046 uM, 0.0015 uM, and 0.00051 uM.
`COC[C@@H]1CCC(Nc2ccc(F)cc2)C2(O)CCCO[C@H]12` (stereo in doubt) [(4aR,5S)-5-[(4-fluorophenyl)amino]-8-(methoxymethyl)hexahydro-2H-chromen-4a(5H)-ol]: the IC50 is 35 nM.

Regarding `O[C@]12CCCC[C@@H]1CCC[C@H]2Nc1ccc(F)cc1` [(4aR,8aR)-4-[(4-fluorophenyl)amino]octahydronaphthalen-4a(2H)-ol], the IC50 amounted to 19 nM.

As for `O[C@]12CCCO[C@H]1CCC[C@H]2Nc1ccc(F)cc1` [(4aS,5R,8aS)-5-[(4-fluorophenyl)amino]hexahydro-2H-chromen-4a(5H)-ol], the IC50 worked out at 520 nM.

As for `O[C@@]12CCCO[C@H]1CCC[C@@H]2Nc1ccc(F)cc1` (stereo in doubt) [(4aR,5S,8aS)-5-[(4-fluorophenyl)amino]hexahydro-2H-chromen-4a(5H)-ol], the IC50 turned out to be 850 nM.

For `O[C@]12CCCC[C@@H]1CCC[C@H]2Nc1ccccc1` [(4R,4aR,8aR)-4-(phenylamino)octahydronaphthalen-4a(2H)-ol], the 50% inhibitory concentration (IC50) was 54 nM.
